Data on one molecule can be found in patent US8129327B2, “Packaging for high moisture bar soap” (The Procter & Gamble Company, priority 2006, dated 2012).

Each structure is given as a SMILES string.

One test deals with penicillium chrysogenum. As to the kind of experiment: inhibition of mold growth on paperboard package containing high moisture bar soap. Conditions: fungicide-treated paperboard package containing high moisture bar soap. An excerpt:
(§1) The present invention further relates to a method of inhibiting the growth of mold, especially certain species of mold such as aspergillus sydowii and/or penicillium chrysogenum, that can grow on a paperboard package containing a high moisture bar soap composition.
(§2) Such a fungicide material is commercially available from Intace S.A. under the tradename INTACE B-6773.

A further test has as its system aspergillus sydowii. Described as above. Conditions: fungicide-treated paperboard package containing high moisture bar soap.
From the text: as §1, §2

For `COC(=O)Nc1nc2ccccc2[nH]1` [carbendazim], the “inhibition of the growth of mold on paperboard packaging” value in the test with penicillium chrysogenum and in the test with aspergillus sydowii was “typically resistant” each time.
